Laboratory results reported in ChEMBL document CHEMBL4376898, “Enhanced Activity against Multidrug-Resistant Bacteria through Coapplication of an Analogue of Tachyplesin I and an Inhibitor of the QseC/B Signaling Pathway” (J Med Chem, 2020).
Converted amounts (≈) assume the structure as drawn.

Assays:
Assay type in all cases: functional
Enterobacter cloacae = experiment: Antimicrobial activity against Enterobacter cloacae BAA 1143 assessed as inhibition of visible growth incubated for 18 hrs; details: BAA 1143, 18 h
Bacillus subtilis [1] = experiment: Antimicrobial activity against Bacillus subtilis 168 assessed as inhibition of visible growth incubated for 18 hrs; details: Bacillus subtilis, 168, 18 h
Bacillus subtilis [2] = experiment: Bactericidal activity against Bacillus subtilis 168
Escherichia coli [3] = experiment: Antimicrobial activity against Escherichia coli ATCC 25923 assessed as inhibition of visible growth incubated for 18 hrs; details: ATCC 25923, 18 h
Escherichia coli [4] = experiment: Antimicrobial activity against Escherichia coli BAA 2469 assessed as inhibition of visible growth incubated for 18 hrs; details: BAA 2469, 18 h
Escherichia coli [5] = experiment: Antimicrobial activity against Escherichia coli K-12 assessed as inhibition of visible growth incubated for 18 hrs; details: K-12, 18 h
Staphylococcus aureus [6] = experiment: Antimicrobial activity against Staphylococcus aureus ATCC 29213 assessed as inhibition of visible growth incubated for 18 hrs; details: ATCC 29213, 18 h
Staphylococcus aureus [7] = experiment: Antimicrobial activity against Staphylococcus aureus BAA 41 assessed as inhibition of visible growth incubated for 18 hrs; details: BAA 41, 18 h
Staphylococcus aureus [8] = experiment: Antimicrobial activity against Staphylococcus aureus BAA 44 assessed as inhibition of visible growth incubated for 18 hrs; details: BAA 44, 18 h
Klebsiella pneumoniae [9] = experiment: Antimicrobial activity against Klebsiella pneumoniae BAA 1144 assessed as inhibition of visible growth incubated for 18 hrs; details: BAA 1144, 18 h
Klebsiella pneumoniae [10] = experiment: Antimicrobial activity against Klebsiella pneumoniae BAA 2470 assessed as inhibition of visible growth incubated for 18 hrs; details: BAA 2470, 18 h
Pseudomonas aeruginosa [11] = experiment: Antimicrobial activity against Pseudomonas aeruginosa ATCC 27853 assessed as inhibition of visible growth incubated for 18 hrs; details: ATCC 27853, 18 h
Pseudomonas aeruginosa [12] = experiment: Antimicrobial activity against Pseudomonas aeruginosa BAA 2108 assessed as inhibition of visible growth incubated for 18 hrs; details: BAA 2108, 18 h
Acinetobacter baumannii [13] = experiment: Antimicrobial activity against Acinetobacter baumannii ATCC 19606 assessed as inhibition of visible growth incubated for 18 hrs; details: ATCC 19606 = CIP 70.34 = JCM 6841, 18 h
Enterococcus faecium [14] = experiment: Antimicrobial activity against Enterococcus […] ATCC 29212 assessed as inhibition of visible growth incubated for 18 hrs; details: ATCC 29212, 18 h
Escherichia coli [15] = experiment: Bactericidal activity against Escherichia coli K-12
Staphylococcus aureus [16] = experiment: Bactericidal activity against Staphylococcus aureus ATCC 29213
Pseudomonas aeruginosa [17] = experiment: Bactericidal activity against Pseudomonas aeruginosa ATCC 27853
Shigella flexneri = experiment: Bactericidal activity against Shigella flexneri ATCC 29903
[18] = Bactericidal activity against Lysobacter enzymogenes YC36
Acinetobacter baumannii [19] = experiment: Bactericidal activity against Acinetobacter baumannii ATCC 19606; details: ATCC 19606 = CIP 70.34 = JCM 6841
Enterococcus faecium [20] = experiment: Bactericidal activity against Enterococcus […] ATCC 29212
[21] = Antimicrobial activity against Lysobacter enzymogenes YC36 assessed as inhibition of visible growth measured after 7th generation exposure to compound by continuous repeated transfer assay (reference value: 4 ug/ml)
[22] = Antimicrobial activity against Lysobacter enzymogenes YC36 assessed as inhibition of visible growth measured after 7th generation exposure to compound by continuous repeated transfer assay relative to before passage
[23] = Antimicrobial activity against Lysobacter enzymogenes YC36 assessed as inhibition of visible growth measured after 7th generation exposure to compound by continuous repeated transfer assay (reference value: 8 ug/ml)
[24] = Bactericidal activity against Lysobacter enzymogenes YC36 with delta qseB mutant assessed as killing of bacterial cells at 2 ug/ml relative to control
[25] = Bactericidal activity against Lysobacter enzymogenes YC36 with delta qseC mutant assessed as killing of bacterial cells at 2 ug/ml relative to control

CC[C@@H](C)[C@H]1NC(=O)CNC(=O)[C@@H](CCCNC(=N)N)NC(=O)[C@@H](Cc2ccc(O)cc2)NC(=O)[C@H]2CSSC[C@@H](NC1=O)C(=O)N[C@H](Cc1ccc(O)cc1)C(=O)N[C@H](CCCNC(=N)N)C(=O)N[C@H](CCCNC(=N)N)C(=O)N[C@@H](C(=O)N[C@H](CCCNC(=N)N)C(N)=O)CSSC[C@@H](NC(=O)[C@@H](Cc1c[nH]c3ccccc13)NC(=O)[C@H](N)CCCCN)C(=O)N[C@H](Cc1ccccc1)C(=O)N[C@H](CCCNC(=N)N)C(=O)N[C@H](C(C)C)C(=O)N2
MIC (Enterobacter cloacae): 8 µg/mL (≈ 3.53 µM)
MIC (Bacillus subtilis [1]): 4 µg/mL (≈ 1.77 µM)
MBC (Bacillus subtilis [2]): 16 to 64 µg/mL (≈ 7.07 to 28.3 µM)
MIC (Escherichia coli [3]): 8 µg/mL (≈ 3.53 µM)
MIC (Escherichia coli [4]): 8 µg/mL (≈ 3.53 µM)
MIC (Escherichia coli [5]): 8 µg/mL (≈ 3.53 µM)
MIC (Staphylococcus aureus [6]): 8 µg/mL (≈ 3.53 µM)
MIC (Staphylococcus aureus [7]): 4 µg/mL (≈ 1.77 µM)
MIC (Staphylococcus aureus [8]): 4 µg/mL (≈ 1.77 µM)
MIC (Klebsiella pneumoniae [9]): 16 µg/mL (≈ 7.07 µM)
MIC (Klebsiella pneumoniae [10]): 16 µg/mL (≈ 7.07 µM)
MIC (Pseudomonas aeruginosa [11]): 8 to 16 µg/mL (≈ 3.53 to 7.07 µM)
MIC (Pseudomonas aeruginosa [12]): 8 µg/mL (≈ 3.53 µM)
MIC (Acinetobacter baumannii [13]): 8 µg/mL (≈ 3.53 µM)
MIC (Enterococcus faecium [14]): 4 µg/mL (≈ 1.77 µM)
MBC (Escherichia coli [15]): 16 to 64 µg/mL (≈ 7.07 to 28.3 µM)
MBC (Staphylococcus aureus [16]): 16 to 64 µg/mL (≈ 7.07 to 28.3 µM)
MBC (Pseudomonas aeruginosa [17]): 16 to 64 µg/mL (≈ 7.07 to 28.3 µM)
MBC (Shigella flexneri): 16 to 64 µg/mL (≈ 7.07 to 28.3 µM)
MBC [18]: 16 to 64 µg/mL (≈ 7.07 to 28.3 µM)
MBC (Acinetobacter baumannii [19]): 16 to 64 µg/mL (≈ 7.07 to 28.3 µM)
MBC (Enterococcus faecium [20]): 16 to 64 µg/mL (≈ 7.07 to 28.3 µM)
MIC [21]: 16 µg/mL (≈ 7.07 µM)
fold change (FC) [22]: 4
MIC [23]: 16 µg/mL (≈ 7.07 µM)
Activity [24]: <=100%
Activity [25]: <=100%
